Columns and labels:
[1] = target: T1, Human progesterone receptor (HPR) (Homo sapiens, UniProt P06401); test: Relative bond affinity (RBA), recombinant human progestogen receptor, charcoal dextran technique; format: binding; conditions: 24 h at 0° C., Progesterone = 100
T1 construct: made in house; host or cells: SF9 insect cells (ATCC CRL1711), baculovirus, lysate supernatant
T1 sequence (P06401 1-933): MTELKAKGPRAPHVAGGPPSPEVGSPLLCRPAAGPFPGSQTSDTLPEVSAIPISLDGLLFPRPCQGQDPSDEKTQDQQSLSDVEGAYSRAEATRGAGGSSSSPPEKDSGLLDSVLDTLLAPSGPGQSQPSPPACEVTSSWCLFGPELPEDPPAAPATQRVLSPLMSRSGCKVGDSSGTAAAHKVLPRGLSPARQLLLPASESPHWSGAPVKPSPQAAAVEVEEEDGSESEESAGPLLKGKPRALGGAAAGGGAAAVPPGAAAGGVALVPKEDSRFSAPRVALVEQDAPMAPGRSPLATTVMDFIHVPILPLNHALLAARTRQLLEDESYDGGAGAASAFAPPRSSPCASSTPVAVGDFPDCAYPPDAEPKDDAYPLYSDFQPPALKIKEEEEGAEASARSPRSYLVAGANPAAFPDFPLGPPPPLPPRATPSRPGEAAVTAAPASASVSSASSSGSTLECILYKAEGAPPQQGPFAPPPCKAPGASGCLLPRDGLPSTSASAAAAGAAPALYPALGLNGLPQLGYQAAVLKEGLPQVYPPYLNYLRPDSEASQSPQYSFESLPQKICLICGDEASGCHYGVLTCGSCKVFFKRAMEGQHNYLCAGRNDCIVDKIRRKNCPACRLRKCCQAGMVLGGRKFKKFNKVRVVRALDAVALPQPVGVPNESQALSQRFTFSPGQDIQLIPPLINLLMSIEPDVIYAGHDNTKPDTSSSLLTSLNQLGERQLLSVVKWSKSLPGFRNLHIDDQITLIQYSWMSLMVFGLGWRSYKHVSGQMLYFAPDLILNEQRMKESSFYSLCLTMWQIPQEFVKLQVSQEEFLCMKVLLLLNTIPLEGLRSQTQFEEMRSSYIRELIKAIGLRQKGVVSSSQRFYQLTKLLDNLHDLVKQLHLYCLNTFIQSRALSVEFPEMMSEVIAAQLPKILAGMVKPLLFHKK
Source text: The human recombinant receptor (HGR, HPR, HAR, HMR, HER) was used.
Human progesterone receptor (HPR):
The recombinant human progestogen receptor was obtained by the superexpression in a cell system of insects--Baculovirus, according to the methodology described by Webb et al (Journal of Methods in Cell and Molecular Biology, (1990) Vol. 2 No. 4, p. 173-188) and the application of which was described for the expression of human hormonal receptors, for example the human glucocorticoid receptor (Srinivasan et al, Molecular Endocrinology, (1990) Vol. 4 No. 2, p. 209-216.
The BaculoGold Transfection Kit (PharMingen, reference 21000K) was used to insert the cDNA fragment described by Kastner et al (The EMBO Journal, (1990), Vol. 9 No. 5, p. 1603-1614), containing the region coding for the human progestogen receptor and to prepare the corresponding recombinant virus. The recombinant virus obtained in this way was used to express the progestogen receptor in SF9 insect cells (ATCC CRL1711), according to the known methodology cited previously.
2×10^7 to 2.5×10^7 SF9 cells were cultured in a 175 ml "Falcon" flask in the TNM-FH medium supplemented with 10% fetal calf serum (FCS) and with 50 micrograms/ml of gentamycin. After infection, then incubation at 27° C. for 40 to 42 hours, the cells were taken up in 1 ml of lysis buffer (1), lysed by 2 cycles of freezing-thawing (-80° C./ 0° C.), then centrifuged at 4° C. for 30 minutes at 20,900 g. The supernatant, containing the recombinant human progestogen receptor, was stored in liquid nitrogen in quantities of 1 ml.
The supernatant was diluted at the time of use with 10 mM Tris buffer, 0.25M saccharose, HCl pH 7.4 containing 0.1% of gelatin and then incubated at 0° C. for 24 hours with a constant concentration (T) of tritiated 17α, 21-dimethyl-19-nor-Δ^4,9 pregnadiene-3,20-dione in the presence of increasing concentrations of either unlabelled progesterone (0-2500×10^-9 M), or the unlabelled product to be tested (1 to 25000×10^-9 M). The concentration of bound tritiated 17,21-dimethyl-19-nor-Δ^4,9 -pregnadiene-3,20-dione (B) was then measured in each incubate using the charcoal dextran adsorption technique.
Calculation of the relative bond affinity (RBA).
The following two curves were drawn: the percentage of bound tritiated hormone B/BO as a function of the logarithm of the concentration of unlabelled reference hormone or as a function of the logarithm of the concentration of unlabelled test product. The straight line of the following equation was determined: […]
The relative bond affinity (RBA) of the test product was determined by the equation: […]

[2] = tested on: endometrial proliferation (uterine lace); test: Progestomimetic activity: endometrial transformation in the rabbit (Clauberg-McPhail test); format: in vivo; design: key to Maximal activity on the uterine lace (McPhail index) / Average uterine lace (McPhail Index): McPhail scale 0–4 with 0.5 steps (endometrial proliferation); conditions: for Average uterine lace (McPhail Index): s/c, day 8 to day 11
Protocol: 2. --Determination of the progestomimetic activity of the products of the invention: Endometrial transformation in the rabbit. The animals used were impuberal female rabbits which were 40-45 days old. The animals were treated with estradiol (5 ug/0.2 ml/rabbit in solution of corn oil, 10% ethanol) by subcutaneous route from day 1 to day 5, then the product to be studied was administered from day 8 to day 11. On day 12, the animals were sacrificed and a median portion of each uterine cornua was removed from each animal and fixed in Bouin's liquid for histological study. After fixing, the samples were dehydrated, included, cut, mounted, the paraffin was removed and then the sample was stained with hemalum-eosin-saffron. […] Then, for each of the cornua, a semi-quantitative evaluation of the endometrial proliferation (uterine lace) was carried out by the McPhail scale from 0 to 4 with 0.5 intermediates and the two figures were averaged. Similarly, the degree of hypertrophy of the cornua was evaluated by the same scale. At higher magnification, morphological observations of the mucous membrane or the myometrium could possibly be formulated. The 1-OH metabolite (product A) was tested at doses of 10, 100, 1000 μg/kg by subcutaneous route as well as orally at a dose of 1000 μg/kg. The 6-OH metabolite (product B) was tested at doses of 100, 1000 and 10000 μg/kg subcutaneously. As a control, progesterone was administered at doses of 100 and 1000 μg/kg by subcutaneous route. The averages were produced for the uterine lace (McPhail Index).

Row | SMILES | RBA, Human progestogen receptor [1] | minimal effective dose ([2]; Oryctolagus cuniculus, rabbit, note on this test, read-out: Dose from which progestomimetic activity starts) [µg/kg] | RBA, Human progestogen receptor ([1]; listed as product B) | Average uterine lace (McPhail Index) ([2]; rabbit, 0,01 mg/kg) | Average uterine lace (McPhail Index) ([2]; rabbit, 0,1 mg/kg)
1 | C[C@H](O)C(=O)[C@@]1(C)CC[C@H]2[C@@H]3CCC4=CC(=O)CCC4=C3CC[C@@]21C [Trimegestone, [17β-(S)]-17-(2-hydroxy-1-oxopropyl)-17-methyl-Δ^4,9-estradiene-3-one, reference compound] | 588 | 1 | – | – | –
2 | C[C@H](O)C(=O)[C@@]1(C)CC[C@H]2[C@@H]3C[C@@H](O)C4=CC(=O)CCC4=C3CC[C@@]21C [Product B, [6β, 17β-(S)]-6-hydroxy-17-(2-hydroxy-1-oxopropyl)-17-methyl-Δ^4,9-estradiene-3-one] | 12 | – | moderate RBA | 1,4 | 2
